Values joined by “and” are separate entries in the source; they are usually repeats but may differ in a detail not shown here. Equal values may be shown once.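 Five concentrations, 48 hours, 96-well plates. GI50 = concentration required for 50% inhibition of growth. TGI: total growth inhibition.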

Twelve compounds from PubChem BioAssay (NCI) can be followed below.

Some test systems named below: NCI-H226 lung; HCC-2998 colon; HS 578T breast; A549 NSCLC; SF-268 CNS; A498 renal; SK-MEL-5 melanoma; COLO 205 colon; KM20L2 colon; LXFL 529 NSCLC.
Assay in all cases: NCI anticancer screen, dose series, 48 h

As to `CCCC(CCC)Oc1ccc(CCCC2=C(O)c3ccccc3C(=O)C2=O)cc1`, the GI50 in the experiment with NCI-H226 lung was 4.24 µM; in the experiment with HCC-2998 colon, 2.8 µM; with HS 578T breast it was 11.7 µM; with A549 NSCLC it was 4.11 µM; in the experiment on SF-268 CNS, 5.22 µM; in the experiment with A498 renal, 7.21 µM. In addition, the values for the GI50 in the experiment on SK-MEL-5 melanoma and with COLO 205 colon were 3.14 µM and 6.7 µM, respectively. In addition, the TGI in the experiment with NCI-H226 lung worked out at 20.8 µM; in the experiment on HCC-2998 colon it was 10.1 µM; in the experiment on HS 578T breast, 37.4 µM; in the experiment with A549 NSCLC it was 22.4 µM; in the experiment with SF-268 CNS it was 18.9 µM; in the experiment on A498 renal, 20.1 µM. The values for the TGI in the experiment on SK-MEL-5 melanoma and with COLO 205 colon were 13.6 µM and 32.3 µM, respectively.

`CN(C)CCC(/C=C/c1ccccc1)=N\Nc1ccc(Cl)cc1`: the TGI turned out to be 3.53 µM in the experiment on HCC-2998 colon; 7.34 µM in the experiment with A549 NSCLC; 3.62 µM with KM20L2 colon; 6.56 µM with SF-268 CNS; 21.8 µM with A498 renal; 31.5 µM with SK-MEL-5 melanoma. Besides, the results for the TGI in the experiment with COLO 205 colon and in the experiment on LXFL 529 NSCLC were 16.5 µM and 9.26 µM, respectively.

`C=C[Si](C)(C)COC(=O)/C(C#N)=C/C=C/c1ccccc1`: the TGI with NCI-H226 lung, with HCC-2998 colon, in the experiment on A549 NSCLC, with KM20L2 colon, in the experiment with SF-268 CNS and with SK-MEL-5 melanoma was above 100 µM each time. Moreover, the TGI in the experiment on COLO 205 colon and with LXFL 529 NSCLC was above 100 µM in each case.

For the compound `COc1ccc2c(c1)C(=O)c1c-2n(CCCN=[N+]=[N-])c(=O)c2cc(N)ccc12`, the GI50 in the experiment with NCI-H226 lung, with HCC-2998 colon, in the experiment on HS 578T breast, in the experiment with A549 NSCLC, in the experiment on SF-268 CNS and in the experiment with A498 renal was above 100 µM each time. For the same compound, the GI50 with SK-MEL-5 melanoma and with COLO 205 colon was above 100 µM in each case. In addition, the TGI in the experiment on NCI-H226 lung, in the experiment with HCC-2998 colon, in the experiment with HS 578T breast, in the experiment with A549 NSCLC, in the experiment with SF-268 CNS and with A498 renal was above 100 µM each time. The TGI in the experiment on SK-MEL-5 melanoma and in the experiment with COLO 205 colon was above 100 µM in each case.

On to `Cc1cc(Cl)cc2c1NC(=O)C2(O)CC(=O)c1ccc(F)cc1` (centres undefined), for which the TGI in the experiment on NCI-H226 lung was above 100 µM; in the experiment on HCC-2998 colon it was above 100 µM; in the experiment on A549 NSCLC it was 81.1 µM; with KM20L2 colon, above 100 µM; in the experiment with SF-268 CNS, above 100 µM; with COLO 205 colon it was above 100 µM.

`CNC12C3C4C1C1C2C3C41C(=O)N[C@H](C(=O)N(C)[C@H](C[C@@H](OC(C)=O)c1nc(C(=O)N[C@@H](Cc2ccccc2)C[C@H](C)C(=O)OC)cs1)C(C)C)C1CC1` (some centres undefined): the GI50 in the experiment on NCI-H226 lung was 1.73 µM; with HCC-2998 colon, 0.319 µM; in the experiment with HS 578T breast, 0.354 µM; in the experiment on A549 NSCLC it was 1.53 µM; in the experiment on SF-268 CNS, 0.354 µM; with A498 renal, 1.06 µM. Moreover, the GI50 in the experiment on SK-MEL-5 melanoma is 0.155 µM; in the experiment with COLO 205 colon it was 0.493 µM. Moreover, the TGI with NCI-H226 lung was above 14 µM; in the experiment on HCC-2998 colon it was 2.67 µM; in the experiment with HS 578T breast, above 10.3 µM; in the experiment on A549 NSCLC it was above 15 µM; in the experiment with SF-268 CNS it was above 10.6 µM; in the experiment with A498 renal it was above 10.9 µM. For the same compound, the results for the TGI with SK-MEL-5 melanoma and in the experiment with COLO 205 colon were 1.41 µM and 2.31 µM, respectively.

On to `Cc1cccc(Cl)c1NC(=O)c1cccc([N+](=O)[O-])c1O`, for which the TGI in the experiment with NCI-H226 lung was 95.9 µM; in the experiment on HCC-2998 colon, above 100 µM; with A549 NSCLC, above 100 µM; in the experiment on KM20L2 colon, above 100 µM; in the experiment with SF-268 CNS it was 96.5 µM; with A498 renal, above 100 µM. Besides, the TGI in the experiment on COLO 205 colon and in the experiment with LXFL 529 NSCLC was above 100 µM throughout.

On to `COC(=O)C1=CO[C@@H](OC2OC(CO)C(O)C(O)C2O)[C@@H]2[C@H](C)[C@@H](O)[C@@H](O)[C@]12O` (some centres undefined), for which the TGI in the experiment on NCI-H226 lung, with HCC-2998 colon, in the experiment on HS 578T breast, in the experiment with A549 NSCLC, in the experiment on SF-268 CNS and in the experiment on A498 renal was above 100 µM in each case. The TGI in the experiment on SK-MEL-5 melanoma and in the experiment on COLO 205 colon was above 100 µM in each case.

Regarding `Clc1ccc(N/N=C(\c2ccccc2)c2ccccn2)nc1`, the GI50 is 0.197 µM with NCI-H226 lung; 0.341 µM in the experiment on HCC-2998 colon; 0.781 µM in the experiment with HS 578T breast; 0.324 µM with SF-268 CNS; 0.133 µM in the experiment with A498 renal; 0.32 µM in the experiment on SK-MEL-5 melanoma. Further, the GI50 with COLO 205 colon was 0.0308 µM. Also, the TGI in the experiment on NCI-H226 lung is 5.16 µM and 0.736 µM; in the experiment with HCC-2998 colon it was > 48.4 µM and 21.1 µM; in the experiment with A549 NSCLC, > 100 µM and 15.9 µM; in the experiment on SF-268 CNS, 21.1 µM and 4.08 µM; in the experiment on A498 renal it was 16.4 µM and > 100 µM; in the experiment with COLO 205 colon, 18.1 µM.

For the compound `COc1cc2c(c(OC)c1OC)C(=O)c1c-2n(CCCN=[N+]=[N-])c(=O)c2cc([N+](=O)[O-])ccc12`, the GI50 with NCI-H226 lung was above 100 µM; in the experiment on HCC-2998 colon it was above 100 µM; with HS 578T breast it was 25.3 µM; with A549 NSCLC it was above 100 µM; in the experiment with SF-268 CNS, 29.8 µM; with A498 renal it was 14 µM. Besides, the GI50 with SK-MEL-5 melanoma and in the experiment with COLO 205 colon was above 100 µM throughout. Moreover, the TGI is above 100 µM with NCI-H226 lung; above 100 µM in the experiment on HCC-2998 colon; above 100 µM with HS 578T breast; above 100 µM in the experiment with A549 NSCLC; above 100 µM in the experiment with SF-268 CNS; 54.1 µM in the experiment on A498 renal. Moreover, the TGI in the experiment on SK-MEL-5 melanoma and with COLO 205 colon was above 100 µM in each case.

For the compound `CC(=O)[O][Hg][CH2]C1(C)COC(C)([CH2][Hg][O]C(C)=O)CO1` (centres undefined), the GI50 was 6.16 µM in the experiment on NCI-H226 lung; 15.7 µM in the experiment with HCC-2998 colon; 2.61 µM in the experiment on HS 578T breast; 7.79 µM with A549 NSCLC; 4.73 µM in the experiment on SF-268 CNS; 19.4 µM in the experiment with A498 renal. Besides, the GI50 is 13.4 µM in the experiment on SK-MEL-5 melanoma and 1.47 µM with COLO 205 colon. Moreover, the TGI in the experiment with NCI-H226 lung was found to be 14.2 µM; in the experiment with HCC-2998 colon, 30.2 µM; in the experiment with HS 578T breast it was 16 µM; in the experiment on A549 NSCLC, 38.4 µM; in the experiment on SF-268 CNS, 9.17 µM; in the experiment on A498 renal, 34.8 µM. In addition, the TGI in the experiment on SK-MEL-5 melanoma is 26.5 µM; in the experiment with COLO 205 colon, 3.15 µM.

Regarding `Cc1cccc2cc3cccc(C(=O)NCCN(C)C)c3nc12`, the TGI turned out to be 0.343 µM in the experiment with NCI-H226 lung; 1.48 µM with HCC-2998 colon; 5.11 µM in the experiment with KM20L2 colon; 3.84 µM in the experiment on SF-268 CNS; 0.192 µM in the experiment with A498 renal; 0.825 µM in the experiment with SK-MEL-5 melanoma. Also, the TGI with COLO 205 colon turned out to be 1.75 µM; in the experiment with LXFL 529 NSCLC, 10.6 µM.
